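Test compounds were applied to cells in 96-well plates for 48 hours at 5 doses. At the GI50, growth is halved.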 The source made the active and inactive calls. Cut-off read from the data, not from the text of the source: active = GI50 up to about 1.1 µM and inactive = higher.
Assays:
Assay in all cases: growth of human tumour cells (NCI), 48 h
BT-549 = system: BT-549
EKVX = system: EKVX
HOP-62 = system: HOP-62
HOP-92 = system: HOP-92
Malme-3M = system: Malme-3M
NCI-H23 = system: NCI-H23
OVCAR-4 = system: OVCAR-4
OVCAR-8 = system: OVCAR-8
PC-3 = system: PC-3
RXF 393 = system: RXF 393
SK-MEL-2 = system: SK-MEL-2
SK-OV-3 = system: SK-OV-3
SW-620 = system: SW-620
UACC-257 = system: UACC-257
UACC-62 = system: UACC-62
M14 = system: M14
MDA-MB-231 = system: MDA-MB-231
SK-MEL-5 = system: SK-MEL-5
T47D = system: T47D
A498 = system: A498

Compound | GI50 (BT-549) | GI50 (EKVX) | GI50 (HOP-62) | GI50 (HOP-92) | GI50 (Malme-3M) | GI50 (NCI-H23) | GI50 (OVCAR-4) | GI50 (OVCAR-8) | GI50 (PC-3) | GI50 (RXF 393) | GI50 (SK-MEL-2) | GI50 (SK-OV-3) | GI50 (SW-620) | GI50 (UACC-257) | GI50 (UACC-62) | GI50 (M14) | GI50 (MDA-MB-231) | GI50 (SK-MEL-5) | GI50 (T47D) | GI50 (A498)
O=C1c2ccccc2-c2nc3ccncc3n21 | > 100 µM (inactive) | > 100 µM (inactive) | > 100 µM (inactive) | > 100 µM (inactive) | > 100 µM (inactive) | > 100 µM (inactive) | > 100 µM (inactive) | > 100 µM (inactive) | > 100 µM (inactive) | > 100 µM (inactive) | > 100 µM (inactive) | > 100 µM (inactive) | > 100 µM (inactive) | > 100 µM (inactive) | > 100 µM (inactive) | – | – | – | – | –
COc1cccc(-c2cc(O)c3cc(N4CCCC4)ccc3n2)c1 | – | 0.166 µM (active) | < 0.001 µM (active) | 0.00112 µM (active) | < 0.001 µM (active) | 0.00279 µM (active) | 2.67 µM (inactive) | < 0.001 µM (active) | < 0.001 µM (active) | < 0.001 µM (active) | < 0.001 µM (active) | < 0.001 µM (active) | < 0.001 µM (active) | < 0.001 µM (active) | < 0.001 µM (active) | < 0.001 µM (active) | 0.00155 µM (active) | < 0.001 µM (active) | > 10 µM (inactive) | –
CN(C)CCNC(=O)c1cccc2ccc(-c3ccc(-c4ccccc4)cc3)nc12 | – | 8.17 µM (inactive) | 3.3 µM (inactive) | 3.02 µM (inactive) | 1.97 µM (inactive) | 5.69 µM (inactive) | 2.72 µM (inactive) | 2.56 µM (inactive) | – | 2.22 µM (inactive) | 18.3 µM (inactive) | 17 µM (inactive) | 2.11 µM (inactive) | 1.86 µM (inactive) | 18.2 µM (inactive) | 1.77 µM (inactive) | – | 1.72 µM (inactive) | – | 3.44 µM (inactive)
CN(C)CCCN1c2ccc([N+](=O)[O-])cc2CCc2cc([N+](=O)[O-])ccc21 | – | 14.1 µM (inactive) | 16 µM (inactive) | 5.26 µM (inactive) | 10.3 µM (inactive) | – | – | 15.5 µM (inactive) | 16.4 µM (inactive) | 6.98 µM (inactive) | 20.7 µM (inactive) | 17.2 µM (inactive) | 15.3 µM (inactive) | 15.2 µM (inactive) | 13.5 µM (inactive) | 16.7 µM (inactive) | 15.9 µM (inactive) | 15.7 µM (inactive) | 15.6 µM (inactive) | –
CNC(=O)CCCNC(=O)CCCCC(=O)N(C)C | – | – | > 100 µM (inactive) | – | > 100 µM (inactive) | > 100 µM (inactive) | > 100 µM (inactive) | > 100 µM (inactive) | > 100 µM (inactive) | > 100 µM (inactive) | > 100 µM (inactive) | > 100 µM (inactive) | > 100 µM (inactive) | – | > 100 µM (inactive) | > 100 µM (inactive) | > 100 µM (inactive) | > 100 µM (inactive) | > 100 µM (inactive) | > 100 µM (inactive)
N#Cc1c(N2CCCC2)nsc1Nc1ccc(F)cc1 | – | 19.7 µM (inactive) | > 100 µM (inactive) | > 100 µM (inactive) | > 100 µM (inactive) | > 100 µM (inactive) | > 100 µM (inactive) | 78 µM (inactive) | > 100 µM (inactive) | > 100 µM (inactive) | > 100 µM (inactive) | 61.2 µM (inactive) | > 100 µM (inactive) | > 100 µM (inactive) | > 100 µM (inactive) | > 100 µM (inactive) | > 100 µM (inactive) | > 100 µM (inactive) | > 100 µM (inactive) | > 100 µM (inactive)
COc1cccc(C2CC(=O)c3cccn32)c1 (configuration not stated) | – | > 100 µM (inactive) | > 100 µM (inactive) | > 100 µM (inactive) | – | > 100 µM (inactive) | > 100 µM (inactive) | > 100 µM (inactive) | 73.3 µM (inactive) | > 100 µM (inactive) | > 100 µM (inactive) | > 100 µM (inactive) | > 100 µM (inactive) | > 100 µM (inactive) | > 100 µM (inactive) | > 100 µM (inactive) | 82.6 µM (inactive) | – | 50.2 µM (inactive) | > 100 µM (inactive)
O=C(c1ccc(-c2ccccc2)cc1)N(Cc1cccnc1)C(=S)N(Cc1cccnc1)C(=O)c1ccc(-c2ccccc2)cc1 | 55 µM (inactive) | > 100 µM (inactive) | > 100 µM (inactive) | 8.95 µM (inactive) | > 100 µM (inactive) | > 100 µM (inactive) | 32.7 µM (inactive) | > 100 µM (inactive) | > 100 µM (inactive) | – | > 100 µM (inactive) | > 100 µM (inactive) | > 100 µM (inactive) | > 100 µM (inactive) | > 100 µM (inactive) | 81.3 µM (inactive) | > 100 µM (inactive) | 56 µM (inactive) | – | > 100 µM (inactive)
CCOc1c(Br)cc(Br)cc1C=C(C#N)C#N | – | > 10 µM (inactive) | > 10 µM (inactive) | 4.19 µM (inactive) | > 10 µM (inactive) | > 10 µM (inactive) | > 10 µM (inactive) | 3.42 µM (inactive) | > 10 µM (inactive) | > 10 µM (inactive) | > 10 µM (inactive) | > 10 µM (inactive) | 2.23 µM (inactive) | – | 6.08 µM (inactive) | – | – | 3.61 µM (inactive) | > 10 µM (inactive) | 1.49 µM (inactive)
Oc1c([Si](c2ccccc2)(c2ccccc2)c2ccccc2)cc2ccccc2c1-c1c(O)c([Si](c2ccccc2)(c2ccccc2)c2ccccc2)cc2ccccc12 | – | > 100 µM (inactive) | 98.9 µM (inactive) | > 100 µM (inactive) | > 100 µM (inactive) | > 100 µM (inactive) | > 100 µM (inactive) | > 100 µM (inactive) | > 100 µM (inactive) | > 100 µM (inactive) | > 100 µM (inactive) | > 100 µM (inactive) | > 100 µM (inactive) | > 100 µM (inactive) | > 100 µM (inactive) | > 100 µM (inactive) | > 100 µM (inactive) | > 100 µM (inactive) | > 100 µM (inactive) | > 100 µM (inactive)
N=C(N)NCCN1CC2CCC(CC2)C1 | – | > 100 µM (inactive) | > 100 µM (inactive) | 25.6 µM (inactive) | > 100 µM (inactive) | > 100 µM (inactive) | > 100 µM (inactive) | > 100 µM (inactive) | 44.1 µM (inactive) | > 100 µM (inactive) | > 100 µM (inactive) | > 100 µM (inactive) | > 100 µM (inactive) | > 100 µM (inactive) | > 100 µM (inactive) | > 100 µM (inactive) | > 100 µM (inactive) | 53.2 µM (inactive) | > 100 µM (inactive) | > 100 µM (inactive)
C=CCNC(=S)N/C=C(\C#N)C(N)=O | – | > 100 µM (inactive) | > 100 µM (inactive) | – | > 100 µM (inactive) | > 100 µM (inactive) | > 100 µM (inactive) | > 100 µM (inactive) | > 100 µM (inactive) | > 100 µM (inactive) | > 100 µM (inactive) | > 100 µM (inactive) | > 100 µM (inactive) | > 100 µM (inactive) | > 100 µM (inactive) | > 100 µM (inactive) | > 100 µM (inactive) | > 100 µM (inactive) | > 100 µM (inactive) | > 100 µM (inactive)
